# Test results reported in PubChem BioAssay (NCI).
# Values joined by “and” are separate entries in the source; they are usually repeats but may differ in a detail not shown here. Equal entries are not always repeated.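 Grown in 96-well plates, cells were treated for 48 hours with each compound at five concentrations. Insufficient inhibition: endpoint recorded as highest concentration tested. The concentration for 50% growth inhibition is given as GI50. TGI denotes the concentration required for complete inhibition of growth.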
# Assays:
# Assay in all cases: NCI-60 cell line screen, 48 h
# [1] = system: IGROV1 ovarian
# [2] = system: KM12 colon
# [3] = system: SNB-19 CNS
# [4] = system: U251 CNS
# [5] = system: DU-145 prostate
# [6] = system: MCF7 breast
# [7] = system: HS 578T breast
# [8] = system: MALME-3M melanoma
# [9] = system: HCT-15 colon
# [10] = system: HOP-92 NSCLC
SMILES,TGI [1],TGI [2] [µM],TGI [3] [µM],TGI [4] [µM],TGI [5] [µM],TGI [6] [µM],TGI [7] [µM],TGI [8] [µM],TGI [9],TGI [10],GI50 [1] [µM],GI50 [2] [µM],GI50 [3] [µM],GI50 [4] [µM],GI50 [6] [µM],GI50 [7] [µM],GI50 [9] [µM]
Cc1c2c(n(CCc3ccc(Cl)cc3)c1C)NN=C(C#N)S2(=O)=O,> 100 µM,> 100,> 100,> 100,> 100,> 100,> 100,> 100,> 100 µM,,,,,,,,
Cc1cc(=O)c2c([nH]1)NS(=O)(=O)NC2=O,> 100 µM,> 100,> 100,,,,,> 100,> 100 µM,> 100 µM,,,,,,,
O=c1c2ccccc2nc2[nH][nH]c(=S)n12,> 100 µM,> 100,> 100,> 100,> 100,> 100,> 100,,> 100 µM,> 100 µM,,,,,,,
O=[N+]([O-])/C(C(Cl)=C(Cl)Cl)=C(\Nc1cccc2cccnc12)SCc1ccccc1,,50.4,42,33.2,39.6,36.5,19.3,28.9,43.4 µM,,,,,,,,
COCOc1ccc(Cn2c(=O)n(C)c(=O)c3c2ncn3C)cc1[N+](=O)[O-],> 100 µM,> 100,> 100,> 100,,,,> 100,> 100 µM,,,,,,,,
O=C1/C(=C\c2cccc(Oc3ccccc3)c2)S(=O)(=O)C(c2ccccc2)N1Cc1ccccc1 (stereo not given),,56.8,55.6,> 100,74,> 100,40.5,37.8,33.7 µM,73.3 µM,,,,,,,
COc1nc(C#CCC(C)O)nc(OC)n1 (stereo not given),42.3 µM,82,> 100,76.9,52.8,33.5,72,25.6,45.6 µM,,,,,,,,
COc1ccc(CC(O)CN2CCOCC2)cc1 (stereo not given),> 100 µM,> 100,> 100,> 100,> 100,,> 100,> 100,> 100 µM,> 100 µM,,,,,,,
Cc1c(C(=O)CSc2nc3ccccc3c(=O)n2-c2ccccc2)c(=O)n(-c2ccccc2)n1C,> 100 µM,> 100,> 100,69.2,,,,> 100,> 100 µM,95.8 µM,,,,,,,
CC12CC(=O)C3C(C(=O)C1)C32C (stereo not given),> 100 µM,> 100,> 100,> 100,> 100,> 100,,> 100,> 100 µM,,,,,,,,
O=C(/C=C/c1ccsc1)c1ccsc1,94.6 µM,37.7,47.7,37.7,> 100,32.4,> 100,75.1,41.5 µM,,,,,,,,
O=C1c2cc3c(cc2CC1Br)CCC3 (stereo not given),9.3 µM,22.1,27.6,8.09,29.4,,> 100,2.82,4.82 µM,,,,,,,,
CC(C(=O)n1nnc2ccccc21)N(c1ccccc1)c1ccccc1 (stereo not given),> 100 µM,,> 100,> 100,,,,> 100,> 100 µM,,,,,,,,
CC[C@H]1CN2CCc3cc(OC)c(OC)cc3[C@@H]2C[C@@H]1C[C@H]1NCCc2cc(OC)c(OC)cc21,0.0935 µM and 0.277 µM,0.138,,,0.0643,,0.0665,0.255,0.76 µM and 1.27 µM,0.196 µM and 0.0779 µM,,,,,,,
O=C(NC(Cc1ccc(I)cc1)C(=O)O)c1ccc(I)cc1 (stereo not given),> 47.6 µM,> 100,> 100,> 100,,> 100,,> 100,> 100 µM,> 100 µM,,,,,,,
COc1cc([N+](=O)[O-])c(OC)cc1-c1nc2sc(Cl)cn2c1/C=N/Nc1ccccn1,> 50 µM,> 50,> 50,14.3,,32,> 50,,> 50 µM,,> 50,> 50,> 50,7.65,11.1,16.8,28.1
N#C/C(=C\c1cc(Br)c(O)c(Br)c1)c1cccnc1,> 100 µM,> 100,> 100,35.6,> 100,> 100,,41.6,44 µM,,,,,,,,
CN(C)Cc1cc(C(=O)/C=C/c2ccc(O)cc2)cc(CN(C)C)c1O,> 100 µM,> 100,> 100,32.2,> 100,> 100,> 100,,> 100 µM,> 100 µM,,,,,,,
O=C(NCCCN(CCCCN(CCCNC(=O)C(F)(F)F)Cc1ccccc1)Cc1ccccc1)C(F)(F)F,26.2 µM,25.9,26.6,,56.2,24.7,31.4,28.4,24.9 µM,38.1 µM,,,,,,,
CC(=O)OCC1OC(n2cc([N+](=O)[O-])c(=O)[nH]c2=O)C(OC(C)=O)C(OC(C)=O)C1OC(C)=O (stereo not given),> 100 µM,> 100,> 100,> 100,,,,> 100,> 100 µM,> 100 µM,,,,,,,
CC(C)(C)NC(=O)/C(=C\Sc1ccccc1)c1ccc2c(c1)OCO2,> 100 µM,> 100,> 100,98.6,> 100,60.6,,,> 100 µM,55.1 µM,,,,,,,
Cc1cn(C2OC(C)(CO)C(O)C2O)c(=O)[nH]c1=O (stereo not given),> 100 µM,> 100,> 100,> 100,,,,> 100,> 100 µM,> 100 µM,,,,,,,
CS(=O)(=O)OCCn1c(=O)n(CCOS(C)(=O)=O)c(=O)n(CCOS(C)(=O)=O)c1=O,> 100 µM,> 100,> 100,> 100,> 100,> 100,,> 100,> 100 µM,,,,,,,,
O=S(=O)(O)c1cc2ccc1/C=C\c1ccc(cc1S(=O)(=O)O)N=Nc1ccc(c(S(=O)(=O)O)c1)/C=C\c1ccc(cc1S(=O)(=O)O)N=N2,> 100 µM,> 100,> 100,> 100,,> 100,,> 100,> 100 µM,> 100 µM,,,,,,,
